According to US12479847B2 (DANA-FARBER CANCER INSTITUTE, INC., priority 2019, dated 2025):

Legend:
Test in all cases: KINOMEscan (ScanMAX) kinase profiling
Format in all cases: binding
[1] = target: T1, panel of 468 kinases (Homo sapiens, UniProt Q9NYL2); conditions: ZAK; 1 μM; read-out: % control
T1 construct: purchased KINOMEscan (ScanMAX) service

[2] = target: T2, panel of 468 kinases (Homo sapiens, UniProt Q14012); conditions: CAMK1; 1 μM; read-out: % control
T2 construct: purchased KINOMEscan (ScanMAX) service
T2 sequence (Q14012 whole entry): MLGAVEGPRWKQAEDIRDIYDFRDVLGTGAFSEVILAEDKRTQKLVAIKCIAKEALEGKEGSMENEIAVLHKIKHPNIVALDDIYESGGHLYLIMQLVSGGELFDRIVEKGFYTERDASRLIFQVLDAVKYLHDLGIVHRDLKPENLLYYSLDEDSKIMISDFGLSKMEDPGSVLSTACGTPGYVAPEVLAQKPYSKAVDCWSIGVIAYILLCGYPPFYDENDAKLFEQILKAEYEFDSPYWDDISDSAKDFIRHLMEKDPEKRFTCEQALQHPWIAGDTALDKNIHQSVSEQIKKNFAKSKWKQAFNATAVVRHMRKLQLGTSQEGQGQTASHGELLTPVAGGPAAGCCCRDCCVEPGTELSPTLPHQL

[3] = target: T3, panel of 468 kinases (Homo sapiens, UniProt P57058); conditions: HUNK; 1 μM; read-out: % control
T3 construct: purchased KINOMEscan (ScanMAX) service
T3 sequence (P57058 1-714): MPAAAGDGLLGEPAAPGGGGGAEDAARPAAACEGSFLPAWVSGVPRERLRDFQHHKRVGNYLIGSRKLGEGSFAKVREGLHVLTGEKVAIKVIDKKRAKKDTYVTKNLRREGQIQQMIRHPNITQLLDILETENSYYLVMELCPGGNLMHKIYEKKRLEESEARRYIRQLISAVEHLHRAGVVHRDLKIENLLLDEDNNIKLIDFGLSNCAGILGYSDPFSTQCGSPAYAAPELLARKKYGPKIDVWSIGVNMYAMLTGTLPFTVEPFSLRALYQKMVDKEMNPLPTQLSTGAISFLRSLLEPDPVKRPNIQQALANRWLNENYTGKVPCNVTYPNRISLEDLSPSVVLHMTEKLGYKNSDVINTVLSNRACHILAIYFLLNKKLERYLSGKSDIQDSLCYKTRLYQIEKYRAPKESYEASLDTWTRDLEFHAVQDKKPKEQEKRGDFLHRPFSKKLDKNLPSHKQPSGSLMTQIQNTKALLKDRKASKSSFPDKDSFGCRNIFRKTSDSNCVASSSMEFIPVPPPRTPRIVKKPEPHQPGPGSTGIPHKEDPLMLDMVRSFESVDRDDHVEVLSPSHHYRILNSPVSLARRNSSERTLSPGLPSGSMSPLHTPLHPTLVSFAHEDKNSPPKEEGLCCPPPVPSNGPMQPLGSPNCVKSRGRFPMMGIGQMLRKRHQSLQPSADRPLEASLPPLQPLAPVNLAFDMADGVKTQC

[4] = target: T4, panel of 468 kinases (Homo sapiens, UniProt Q96Q40); conditions: PFTAIRE2; 1 μM; read-out: % control
T4 construct: purchased KINOMEscan (ScanMAX) service
T4 sequence (Q96Q40 whole entry): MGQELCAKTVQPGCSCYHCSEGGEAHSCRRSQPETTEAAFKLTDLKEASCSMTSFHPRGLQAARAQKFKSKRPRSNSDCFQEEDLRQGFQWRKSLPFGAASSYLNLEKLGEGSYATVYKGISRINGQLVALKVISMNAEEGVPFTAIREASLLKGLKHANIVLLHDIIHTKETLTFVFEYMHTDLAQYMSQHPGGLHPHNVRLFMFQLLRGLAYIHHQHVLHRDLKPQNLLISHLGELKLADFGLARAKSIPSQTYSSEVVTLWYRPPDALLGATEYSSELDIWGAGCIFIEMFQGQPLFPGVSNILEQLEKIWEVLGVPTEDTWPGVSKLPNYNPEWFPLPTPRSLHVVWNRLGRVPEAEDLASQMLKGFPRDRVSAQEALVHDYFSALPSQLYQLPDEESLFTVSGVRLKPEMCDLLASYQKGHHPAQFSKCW

[5] = target: T5, panel of 468 kinases (Homo sapiens, UniProt P29320); conditions: EPHA3; 1 μM; read-out: % control
T5 construct: purchased KINOMEscan (ScanMAX) service
T5 sequence (P29320 21-983): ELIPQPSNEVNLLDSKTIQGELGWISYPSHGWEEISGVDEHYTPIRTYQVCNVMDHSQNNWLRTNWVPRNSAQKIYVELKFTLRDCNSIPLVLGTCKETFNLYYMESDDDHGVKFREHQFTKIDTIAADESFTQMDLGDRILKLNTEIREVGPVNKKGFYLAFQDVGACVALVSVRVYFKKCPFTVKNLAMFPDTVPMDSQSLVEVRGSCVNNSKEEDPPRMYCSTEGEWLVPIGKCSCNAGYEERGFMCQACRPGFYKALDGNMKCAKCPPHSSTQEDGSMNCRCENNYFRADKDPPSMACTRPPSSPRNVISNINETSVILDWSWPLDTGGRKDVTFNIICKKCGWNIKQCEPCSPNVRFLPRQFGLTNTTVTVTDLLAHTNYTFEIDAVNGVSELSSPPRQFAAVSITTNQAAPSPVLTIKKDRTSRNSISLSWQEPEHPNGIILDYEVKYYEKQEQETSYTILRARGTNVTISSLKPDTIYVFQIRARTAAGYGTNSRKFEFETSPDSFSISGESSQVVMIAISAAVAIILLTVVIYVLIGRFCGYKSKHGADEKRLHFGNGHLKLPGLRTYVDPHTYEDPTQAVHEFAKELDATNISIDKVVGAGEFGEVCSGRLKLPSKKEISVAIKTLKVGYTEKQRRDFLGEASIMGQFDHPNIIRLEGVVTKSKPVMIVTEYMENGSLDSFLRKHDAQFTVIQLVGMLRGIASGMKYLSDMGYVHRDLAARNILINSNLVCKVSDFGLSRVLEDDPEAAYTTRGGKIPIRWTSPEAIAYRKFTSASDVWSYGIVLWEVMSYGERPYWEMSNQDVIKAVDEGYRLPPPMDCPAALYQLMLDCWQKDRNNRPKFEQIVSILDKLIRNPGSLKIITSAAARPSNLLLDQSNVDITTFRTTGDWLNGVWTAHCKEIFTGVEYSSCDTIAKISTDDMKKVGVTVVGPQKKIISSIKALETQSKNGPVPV

[6] = target: T6, panel of 468 kinases (Homo sapiens, UniProt P16234); conditions: PDGFRA; 1 μM; read-out: % control
T6 construct: purchased KINOMEscan (ScanMAX) service
T6 sequence (P16234 24-1089): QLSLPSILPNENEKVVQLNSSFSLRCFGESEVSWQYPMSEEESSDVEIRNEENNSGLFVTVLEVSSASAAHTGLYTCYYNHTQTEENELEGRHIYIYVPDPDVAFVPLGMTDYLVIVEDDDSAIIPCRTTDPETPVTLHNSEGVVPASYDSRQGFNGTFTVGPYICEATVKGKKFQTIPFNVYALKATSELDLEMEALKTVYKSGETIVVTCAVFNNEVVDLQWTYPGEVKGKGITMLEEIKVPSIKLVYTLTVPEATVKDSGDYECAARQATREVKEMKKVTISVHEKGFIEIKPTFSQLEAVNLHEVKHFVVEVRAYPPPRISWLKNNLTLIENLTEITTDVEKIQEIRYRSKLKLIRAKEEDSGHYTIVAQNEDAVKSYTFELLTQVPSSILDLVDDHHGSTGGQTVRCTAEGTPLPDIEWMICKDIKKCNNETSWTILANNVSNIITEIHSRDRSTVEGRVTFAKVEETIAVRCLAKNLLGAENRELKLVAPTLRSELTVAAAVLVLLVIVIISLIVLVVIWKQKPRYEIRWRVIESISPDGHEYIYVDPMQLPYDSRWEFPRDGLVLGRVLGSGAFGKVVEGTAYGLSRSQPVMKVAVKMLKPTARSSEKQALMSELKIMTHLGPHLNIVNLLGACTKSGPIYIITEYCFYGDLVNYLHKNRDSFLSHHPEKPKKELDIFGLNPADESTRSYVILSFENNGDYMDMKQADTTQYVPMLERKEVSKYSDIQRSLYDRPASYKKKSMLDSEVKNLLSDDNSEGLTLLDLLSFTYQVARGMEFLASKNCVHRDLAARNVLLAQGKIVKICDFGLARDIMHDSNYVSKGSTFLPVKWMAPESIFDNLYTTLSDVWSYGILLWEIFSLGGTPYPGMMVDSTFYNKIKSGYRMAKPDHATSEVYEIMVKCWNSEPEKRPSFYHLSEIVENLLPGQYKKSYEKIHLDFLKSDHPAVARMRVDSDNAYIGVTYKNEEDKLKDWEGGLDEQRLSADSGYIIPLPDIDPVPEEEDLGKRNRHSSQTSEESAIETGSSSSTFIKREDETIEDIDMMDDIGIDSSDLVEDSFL

[7] = target: T7, panel of 468 kinases (Homo sapiens, UniProt P42345); conditions: MTOR; 1 μM; read-out: % control
T7 construct: purchased KINOMEscan (ScanMAX) service

[8] = target: T8, panel of 468 kinases (Homo sapiens, UniProt Q9Y463); conditions: DYRK1B; 1 μM; read-out: % control
T8 construct: purchased KINOMEscan (ScanMAX) service
T8 sequence (Q9Y463 whole entry): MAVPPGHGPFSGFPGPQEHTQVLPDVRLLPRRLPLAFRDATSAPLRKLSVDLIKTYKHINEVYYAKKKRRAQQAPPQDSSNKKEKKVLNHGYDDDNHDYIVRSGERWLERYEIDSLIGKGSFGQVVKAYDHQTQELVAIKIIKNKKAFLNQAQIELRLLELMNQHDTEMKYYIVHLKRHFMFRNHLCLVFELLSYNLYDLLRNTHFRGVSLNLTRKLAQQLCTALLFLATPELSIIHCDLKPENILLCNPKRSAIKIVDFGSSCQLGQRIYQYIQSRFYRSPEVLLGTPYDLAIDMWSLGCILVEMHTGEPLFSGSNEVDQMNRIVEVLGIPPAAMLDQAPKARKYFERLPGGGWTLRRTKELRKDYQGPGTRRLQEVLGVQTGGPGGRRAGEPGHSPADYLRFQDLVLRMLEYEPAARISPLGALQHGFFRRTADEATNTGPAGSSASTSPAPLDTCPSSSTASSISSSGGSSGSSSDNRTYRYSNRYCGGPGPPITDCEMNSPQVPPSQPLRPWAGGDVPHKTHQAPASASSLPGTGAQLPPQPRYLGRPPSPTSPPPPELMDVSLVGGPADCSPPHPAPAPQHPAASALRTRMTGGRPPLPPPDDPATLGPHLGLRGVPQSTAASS

[9] = target: T9, panel of 468 kinases (Homo sapiens, UniProt P42336, I800L); conditions: PIK3CA(I800L); 1 μM; read-out: % control
T9 construct: purchased KINOMEscan (ScanMAX) service

[10] = target: T10, panel of 468 kinases (Homo sapiens, UniProt Q9UM73); conditions: ALK; 1 μM; read-out: % control
T10 construct: purchased KINOMEscan (ScanMAX) service

[11] = target: T11, panel of 468 kinases (Homo sapiens, UniProt P22455); conditions: FGFR4; 1 μM; read-out: % control
T11 construct: purchased KINOMEscan (ScanMAX) service
T11 sequence (P22455 22-802): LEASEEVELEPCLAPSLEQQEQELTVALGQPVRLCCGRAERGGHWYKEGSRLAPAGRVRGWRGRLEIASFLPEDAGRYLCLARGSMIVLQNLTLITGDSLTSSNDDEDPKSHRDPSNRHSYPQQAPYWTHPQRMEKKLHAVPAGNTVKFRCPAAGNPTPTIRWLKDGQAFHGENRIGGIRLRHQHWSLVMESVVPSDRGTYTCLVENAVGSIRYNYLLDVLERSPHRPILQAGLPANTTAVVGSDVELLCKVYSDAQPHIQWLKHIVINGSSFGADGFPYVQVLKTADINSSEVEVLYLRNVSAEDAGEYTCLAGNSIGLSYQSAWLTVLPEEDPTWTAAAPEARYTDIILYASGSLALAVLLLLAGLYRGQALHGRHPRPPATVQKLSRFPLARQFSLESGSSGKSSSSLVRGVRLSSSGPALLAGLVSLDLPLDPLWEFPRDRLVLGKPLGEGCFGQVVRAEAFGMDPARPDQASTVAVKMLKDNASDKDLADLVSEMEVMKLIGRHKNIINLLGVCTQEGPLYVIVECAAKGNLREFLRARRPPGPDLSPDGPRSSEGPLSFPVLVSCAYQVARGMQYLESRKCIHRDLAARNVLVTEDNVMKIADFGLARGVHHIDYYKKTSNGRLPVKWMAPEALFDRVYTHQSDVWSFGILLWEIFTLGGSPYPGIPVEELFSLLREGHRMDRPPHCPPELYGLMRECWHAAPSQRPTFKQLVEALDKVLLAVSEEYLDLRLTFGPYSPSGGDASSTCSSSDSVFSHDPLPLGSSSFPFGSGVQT

T1 sequence (Q9NYL2 whole entry): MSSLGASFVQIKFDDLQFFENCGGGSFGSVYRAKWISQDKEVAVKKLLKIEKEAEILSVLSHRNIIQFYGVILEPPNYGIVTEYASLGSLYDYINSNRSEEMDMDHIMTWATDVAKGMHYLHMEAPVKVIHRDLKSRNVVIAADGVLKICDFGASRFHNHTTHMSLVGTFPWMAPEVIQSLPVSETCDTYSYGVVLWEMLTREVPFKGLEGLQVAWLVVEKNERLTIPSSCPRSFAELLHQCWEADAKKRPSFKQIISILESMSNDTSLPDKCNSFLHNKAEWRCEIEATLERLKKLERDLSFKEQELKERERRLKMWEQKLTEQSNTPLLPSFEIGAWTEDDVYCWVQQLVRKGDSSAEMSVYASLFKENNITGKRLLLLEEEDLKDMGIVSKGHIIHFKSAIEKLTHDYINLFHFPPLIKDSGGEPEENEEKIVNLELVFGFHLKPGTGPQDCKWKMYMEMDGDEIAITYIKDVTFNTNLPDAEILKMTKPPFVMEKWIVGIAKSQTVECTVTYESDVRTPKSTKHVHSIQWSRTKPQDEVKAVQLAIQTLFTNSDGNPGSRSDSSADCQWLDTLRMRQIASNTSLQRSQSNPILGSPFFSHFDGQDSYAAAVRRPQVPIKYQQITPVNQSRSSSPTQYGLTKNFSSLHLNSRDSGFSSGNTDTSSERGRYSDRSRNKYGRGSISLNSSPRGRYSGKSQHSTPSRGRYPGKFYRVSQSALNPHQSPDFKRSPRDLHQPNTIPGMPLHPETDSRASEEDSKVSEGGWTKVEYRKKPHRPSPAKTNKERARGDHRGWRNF

`CNc1nc(Nc2ccc(S(=O)(=O)N3CCC(N4CCOCC4)CC3)cc2OC)nc2[nH]cc(Cl)c12` [Compound 12, 5-chloro-N2-(2-methoxy-4-((4-morpholinopiperidin-1-yl)sulfonyl)phenyl)-N4-methyl-7H-pyrrolo[2,3-d]pyrimidine-2,4-diamine] was tested, and the remaining binding at 1 µM [1] was 100%, the remaining binding at 1 µM [2] was 100% and the remaining binding at 1 µM [3] was 12%. The remaining binding at 1 µM [4] was 100%, the remaining binding at 1 µM [5] was 100% and the remaining binding at 1 µM [6] was 77%. It also gave a remaining binding at 1 µM [7] of 67%, a remaining binding at 1 µM [8] of 6.1% and a remaining binding at 1 µM [9] of 74%. For the same molecule, the remaining binding at 1 µM [10] was 3.4% and the remaining binding at 1 µM [11] was 90%.

Molecule `CNc1nc(Nc2ccc(C(=O)N3CCC(N4CCOCC4)CC3)c3c2OCO3)nc2[nH]cc(Cl)c12` [Compound 75, (7-((5-chloro-4-(methylamino)-7H-pyrrolo[2,3-d]pyrimidin-2-yl)amino)benzo[d][1,3]dioxol-4-yl)(4-morpholinopiperidin-1-yl)methanone] has a remaining binding at 1 µM [1] of 100%, a remaining binding at 1 µM [2] of 75% and a remaining binding at 1 µM [3] of 18%. For the same molecule, the remaining binding at 1 µM [4] was 100%, the remaining binding at 1 µM [5] was 100% and the remaining binding at 1 µM [6] was 67%. For the same molecule, the remaining binding at 1 µM [7] was 79%, the remaining binding at 1 µM [8] was 0% and the remaining binding at 1 µM [9] was 87%. It also gave a remaining binding at 1 µM [10] of 1.9% and a remaining binding at 1 µM [11] of 100%.

In the case of `CNc1nc(Nc2ccc(P3(=O)CCN(C4CCOCC4)CC3)cc2OC)nc2[nH]cc(Cl)c12` [Compound 77, 4-(4-((5-chloro-4-(methylamino)-7H-pyrrolo[2,3-d]pyrimidin-2-yl)amino)-3-methoxyphenyl)-1-(tetrahydro-2H-pyran-4-yl)-1,4-azaphosphinane 4-oxide], the remaining binding at 1 µM [1] is reported as 100%, the remaining binding at 1 µM [2] is reported as 67% and the remaining binding at 1 µM [3] is reported as 14%. It also gave a remaining binding at 1 µM [4] of 100%, a remaining binding at 1 µM [5] of 100% and a remaining binding at 1 µM [6] of 69%. For the same molecule, the remaining binding at 1 µM [7] was 84%, the remaining binding at 1 µM [8] was 13% and the remaining binding at 1 µM [9] was 69%. For the same molecule, the remaining binding at 1 µM [10] was 2% and the remaining binding at 1 µM [11] was 98%.
